Assay results published in patent publication US20240252463A1, “METHODS OF TREATING FIBROTIC PATHOLOGIES” (Mayo Foundation for Medical Education and Research, priority 2018, published 2024).
Structures can show the parent of a compound that is named as a salt. Where two headings read alike, the source gives them in different places.

Columns and labels:
αSMA = αSMA intensity (fibroblast activation) in IPF patient-derived lung fibroblasts + TGFβ; assay type: cell-based, human; details: 1 μM + TGFβ, treated for 72 hours; for activity at 1 µM: Homo sapiens, SMA
Experimental: (§1) ImmunofluorescenceMicroscopy: Cells were plated into 96 well plates (Corning 3603) in their specific growth media and allowed to attach (8 hours). Media was then exchanged for the indicated conditions for each experiment. Cells were fixed in 3.7% formalin (Sigma-Aldrich), permeabilized in 0.25% Triton X-100 (Sigma-Aldrich) and then blocked with 1% BSA for 1 h. Cells or tissue sections were incubated overnight with mouse monoclonal antibody against αSMA (Sigma-Aldrich F3777), and/or a rabbit monoclonal antibody against YAP/TAZ (Cell Signaling D24E4) diluted 1:200 in PBS with 1% BSA. Cells were then washed and exposed to flourescence-conjugated secondary antibodies (Invitrogen) diluted 1:1000 and DAPI (Thermo Fisher Scientific). Images were taken with a Cytation5 (BioTek) microscope. For scoring αSMA positive cells (FIG. 3b), an observer blinded to the treatment conditions counted αSMA-positive cells using a visual threshold for bright fibrous staining; a minimum of 200 cells was counted for each condition. YAP/TAZ localization was quantified (FIG. 2, 6, 8) using Gen5 (Biotek) software. Images were taken at 4× magnification of both DAPI and YAP/TAZ staining. […] Quantification of double positive (YAP/TAZ and αSMA) cells from lung tissue sections (FIG. 4d) was performed similarly; however separate thresholds were established for both YAP/TAZ and αSMA. A minimum of 4000 cells was quantified for each mouse.

YAP/TAZ = YAP/TAZ nuclear localization (immunofluorescence, automated imaging) in IPF patient-derived lung fibroblasts; assay type: cell-based, human; details: 10 μM, treated 2 hours prior to fixation; for Nuclear localization (% of total cells) IPF-1: patient sample IPF-1; for Nuclear localization (% of total cells) IPF-2: patient sample IPF-2; for Nuclear localization (% of total cells) IPF-3: patient sample IPF-3; for Nuclear localization (% of total cells) IPF-4: patient sample IPF-4
Experimental: 27A. […] IPF patient-derived lung fibroblasts cells treated 2 hours prior to fixation with diverse dopaminergic agonists (10 μM). N=4 different patient samples. % nuclear localization of YAP/TAZ was determined using automated imaging software. Scale bar represents 100 μm. 27C. cAMP measured in IPF patient-derived fibroblasts treated for 20 minutes with DHX. N=3. 27E.
as §1

[1] = patient sample IPF-1, read-out: αSMA intensity (% of DMSO control) IPF-1
[2] = patient sample IPF-2, read-out: αSMA intensity (% of DMSO control) IPF-2
[3] = patient sample IPF-3, read-out: αSMA intensity (% of DMSO control) IPF-3
[4] = patient sample IPF-4, read-out: αSMA intensity (% of DMSO control) IPF-4

| Compound | αSMA intensity (% of DMSO control) IPF-1 (αSMA; patient sample IPF-1) | αSMA intensity (% of DMSO control) IPF-2 (αSMA; patient sample IPF-2) | αSMA intensity (% of DMSO control) IPF-3 (αSMA; patient sample IPF-3) | αSMA intensity (% of DMSO control) IPF-4 (αSMA; patient sample IPF-4) | Nuclear localization (% of total cells) IPF-1 (YAP/TAZ) | Nuclear localization (% of total cells) IPF-2 (YAP/TAZ) | Nuclear localization (% of total cells) IPF-3 (YAP/TAZ) | Nuclear localization (% of total cells) IPF-4 (YAP/TAZ) | activity at 1 µM (αSMA; [1]) [%] | activity at 1 µM (αSMA; [2]) [%] | activity at 1 µM (αSMA; [3]) [%] | activity at 1 µM (αSMA; [4]) [%] |
| --- | --- | --- | --- | --- | --- | --- | --- | --- | --- | --- | --- | --- |
| CCCN(CCc1ccccc1)C1CCc2c(O)cccc2C1.Cl (racemic) [(±)-2-(N-phenylethyl-N-propyl)amino-5-hydroxytetralin] | 65.43 % of DMSO control | 52.77 % of DMSO control | 60.4844 % of DMSO control | 51.1 % of DMSO control | 68.85 % of total cells | 60.86 % of total cells | 68 % of total cells | 56.552 % of total cells | – | – | – | – |
| CCCN1CCO[C@@H]2c3cc(O)ccc3OC[C@H]21.Cl (racemic) [(±)-PD 128,907•HCl] | 83.68 % of DMSO control | 85.45 % of DMSO control | 94.2538 % of DMSO control | 75.15 % of DMSO control | 60.13 % of total cells | 49.54 % of total cells | 78.48 % of total cells | 60.66 % of total cells | – | – | – | – |
| C=CCN1CCc2c(cc(O)c(O)c2Cl)C(c2ccccc2)C1 (racemic) [(±)-SKF-82958•HBr] | – | – | – | – | 29.15 % of total cells | 38 % of total cells | 38 % of total cells | 12.29 % of total cells | 11.8 | 4.97 | 2.43 | 9.33 |
| NCCc1cccc(O)c1 [3-Hydroxyphenethylamine•HCl, 3-Hydroxyphenethylamine] | – | – | – | – | 48.96 % of total cells | 56.92 % of total cells | 69.25 % of total cells | 58.37 % of total cells | 88.6 | 96.7 | 82.6 | 99.8 |
| NCCc1ccc(O)cc1 [4-Hydroxyphenethylamine•HCl, 4-Hydroxyphenethylamine] | – | – | – | – | – | – | – | – | 99.7 | 93.4 | 95.7 | 88.3 |
| Br.NC1CCc2cc(O)c(O)cc2C1 (stereo not shown) [6,7-ADTN•HBr, 6,7-ADTN] | 37.14 % of DMSO control | 4.182 % of DMSO control | 9.909 % of DMSO control | 4.888 % of DMSO control | 43.89 % of total cells | 44 % of total cells | 65.5 % of total cells | 52.65 % of total cells | – | – | – | – |
| CCCN(CCC)[C@@H]1CCc2c(OC)cccc2[C@@H]1C.O=C(O)/C=C\C(=O)O [(+)-UH 232 maleate] | 82.91 % of DMSO control | 63.85 % of DMSO control | 85.81 % of DMSO control | 65.71 % of DMSO control | 61.9521 % of total cells | 68 % of total cells | 71.85 % of total cells | 67.27 % of total cells | – | – | – | – |
| NC[C@@H]1O[C@H](C23CC4CC(CC(C4)C2)C3)Cc2c1ccc(O)c2O [A-77636•HCl•H2O] | – | – | – | – | 26.46 % of total cells | 30.88 % of total cells | 41.33 % of total cells | 37.79 % of total cells | 5.81 | 0.719 | 0.0677 | 12.4 |
| C=CCN1CCc2nc(N)sc2CC1.Cl.Cl [B-HT 920•2HCl] | 74.98 % of DMSO control | 58.97 % of DMSO control | 70.12 % of DMSO control | 54.23 % of DMSO control | 75.68 % of total cells | 46.9 % of total cells | 64.79 % of total cells | 76.24 % of total cells | – | – | – | – |
| CC(C)C[C@H]1C(=O)N2CCC[C@H]2[C@]2(O)O[C@](NC(=O)[C@@H]3C=C4c5cccc6[nH]c(Br)c(c56)C[C@H]4N(C)C3)(C(C)C)C(=O)N12 [Bromocriptine mesylate, Bromocriptine] | – | – | – | – | – | – | – | – | 54.1 | 53.6 | 61.1 | 34.1 |
| CN1Cc2ccccc2C2c3cccc4[nH]cc(c34)CC21 (stereo not shown) [CY 208-243] | – | – | – | – | 20.52 % of total cells | 39.79 % of total cells | 41.17 % of total cells | 19.82 % of total cells | 21 | 2.28 | 2.61 | 9.64 |
| C=CCN1C[C@H](C(=O)N(CCCN(C)C)C(=O)NCC)C[C@@H]2c3cccc4[nH]cc(c34)C[C@H]21 [Cabergoline] | – | – | – | – | – | – | – | – | 76.9 | 48.1 | 77.1 | 45.8 |
| CCCN(CCC)CCc1ccc(O)c(O)c1 [Dipropyldopamine•HBr, Dipropyldopamine] | 48.72 % of DMSO control | 28.11 % of DMSO control | 40.34 % of DMSO control | 25.86 % of DMSO control | 69.18 % of total cells | 74.36 % of total cells | 65.5 % of total cells | 51.82 % of total cells | – | – | – | – |
| CN1C[C@@H](NS(=O)(=O)N(C)C)C[C@@H]2c3cccc4c3c(cn4C)C[C@H]21 [Mesulergine•HCl, Mesulergine] | – | – | – | – | – | – | – | – | 35.5 | 23.3 | 40 | 19.8 |
| CCCN1C[C@H](CSC)C[C@@H]2c3cccc4[nH]cc(c34)C[C@H]21 [Pergolide mesylate, Pergolide] | – | – | – | – | – | – | – | – | 65 | 51.6 | 63.6 | 48.1 |
| c1cnc(N2CCN(Cc3ccc4c(c3)OCO4)CC2)nc1 [Piribedil•2HCl, Piribedil] | – | – | – | – | – | – | – | – | 70.4 | 61.5 | 71.5 | 41.2 |
| CCCN[C@H]1CCc2nc(N)sc2C1 [Pramipexole Dihydrochloride Monohydrate, Pramipexole] | – | – | – | – | – | – | – | – | 87.6 | 73.2 | 82.8 | 89.9 |
| CCCN(CCC)CCc1cccc2c1CC(=O)N2 [Ropinirole HCl, Ropinirole] | – | – | – | – | – | – | – | – | 72.2 | 53.5 | – | 62 |
| Oc1cc2c(cc1O)[C@@H](c1ccccc1)CNCC2 [SKF 38393•HBr] | – | – | – | – | – | – | – | – | 37.1 | 26.8 | 31.2 | 20.8 |
